# Measured values: US20130323303A1, “DRUG CARRIER AND PREPARATION METHOD THEREOF” (NATIONAL CHIAO TUNG UNIVERSITY, priority 2012, published 2013)
# System: tumor (transplanted cancer cells carrying fluorescent gene)
# Assay: Animal tumor model, tumor size recorded via in vivo imaging system (IVIS)
# Conditions: mouse model, after 28 days of drug treatment
# Procedure: Under the in vivo experiment of animal tumor model, first a mouse model treated with doxorubucin was prepared as the control group, and another mouse model treated with the oral drug carrier containing doxorubucin was prepared as the experimental group. After drug treatment, the mouse models were recorded the variation of tumor size via in vivo imaging system (IVIS) (because of the mice transplanted with the cancer cells carrying fluorescent gene).
# FIG. 6A and 6B are […] of the experimental group that the mouse model was treated with drug at 0 day and after 28 days. The tumor size of the mouse model in the experimental group was 65% compared to before treatment. FIG. 6C and 6D are IVIS photos of the control group that the mouse model was treated with drug at 0 day and after 28 days. […] FIG. 7 is a variation graph in fluorescence values of tumor cells tested by IVIS, and the tumor cells were from the above mouse model treated with drug.
structure (smiles),measurement,value
"COc1cccc2c1C(=O)c1c(O)c3c(c(O)c1C2=O)C[C@@](O)(C(=O)CO)C[C@@H]3O[C@H]1C[C@H](N)[C@H](O)[C@H](C)O1 [doxorubucin, doxorubicin]",tumor size compared to before treatment,200%
